The source of these data is patent publication US6670381B2, “Benzamide derivatives as thrombin inhibitors” (SmithKline Beecham Corporation, priority 1998, dated 2003).

One test deals with human plasma. In words: APTT (activated partial thromboplastin time), clotting time of human plasma in vitro. The test is classed as biochemical. As to conditions: pooled citrated human plasma; for APTT: concentration of compound to extend the normal APTT by 1.5×: 1.5× extension of clotting time; for APTT: degree of extension (ratio of clotting times in presence or absence of compound): at 100 nM compound. Here is the method: Pooled citrated (0.38% trisodium citrate w/v) plasma was prepared from blood taken from healthy volunteers and stored at −70° C. The APTT tests were performed using a Thrombtrack 4 from Nycomed. Actin reagent (a reconstituted extract from dehydrated rabbit brain, also containing ellagic acid) was obtained from Baxter Healthcare Corporation USA. Briefly, citrated plasma was added to either compound or distilled water followed by addition of actin reagent. These were then mixed for 2 min at 37° C. before adding calcium chloride to initiate clotting. Compounds extended the normal clotting time, which is in the range 30-35 seconds, to varying degrees depending on their concentrations. The degrees of extension of the APTT was calculated by the ratio of clotting times in presence or absence of compound. The concentration of a compound to extend the ‘normal’ APTT by 1.5× was used as a criterion for comparing the anti-coagulant activities of compounds.

A further test has as its target human α-thrombin (Homo sapiens, UniProt P00734). In words: Thrombin inhibitory activity, chromogenic assay. The test is classed as biochemical. Particulars: substrate N-p-tosyl-gly-pro-lys p-nitroanilide 100 μM, thrombin 1 nM, pH 7.4, room temperature. Here is the method:
All dilutions were made in a buffer consisting of: 50 mM HEPES, 150 mM NaCl, 5 mM CaCl2, 0.1% PEG and at pH 7.4. Briefly, the substrate (final conc. of 100 μM) was added to thrombin (final conc. of 1 nM) and the reaction monitored for 10 mins at 405 nm using a Biotek EL340 plate reader; the assay was performed at room temperature. To obtain IC50s the data were analyzed using Kineticalc™ and processed using ActivityBase™ to obtain the IC50 value.

Structures are written as SMILES. pIC50: −log10 of the molar value.

Take `CCCN(CC)C(=O)c1cc(C)cc(OC[C@H](C)Nc2ccncc2)c1` [Example 6, N-Ethyl-3-methyl-N-propyl-5-[2S-(pyridin-4-ylamino)-propoxy]-benzamide]: in the test with human plasma, the “APTT: concentration of compound to extend the normal APTT by 1.5×” value (from here on “APTT: concentration of compound”) is 120 (1.5×) nM. Also, the negative-log IC50 (pIC50) against human α-thrombin is 8.82.

Regarding `CCCN(C)C(=O)c1cc(C)cc(OC[C@H](C)Nc2ccncc2)c1` [Example 4, 3,N-Dimethyl-N-propyl-5-[2S-(pyridin-4-ylamino)-propoxy]-benzamide], the “APTT: concentration of compound” value in the test on human plasma was 97 (1.5×) nM. Moreover, the pIC50 against human α-thrombin is 8.30.

In the case of `CCCN(C(=O)c1cc(C)cc(OC[C@H](C)Nc2ccncc2)c1)C(C)C` [Example 9, N-Isopropyl-3-methyl-N-propyl-5-[2S-(pyridin-4-ylamino)-propoxy]-benzamide], in the test on human plasma, the “APTT: concentration of compound” value is 60 (1.5×) nM. The negative-log IC50 (pIC50) at human α-thrombin is greater than 9.00.

Take `CCN(C(=O)c1cc(C)cc(OC[C@H](C)Nc2ccncc2)c1)C(C)C` [Example 1, N-Ethyl-N-isopropyl-3-methyl-5-[2S-(pyridin-4-ylamino)-propoxy]-benzamide]: in the test on human plasma, the “APTT: concentration of compound” value was 40 (1.5×) nM. Moreover, the pIC50 against human α-thrombin is greater than 9.00.

Consider `Cc1cc(OC[C@H](C)Nc2ccncc2)cc(C(=O)N(C)C(C)C)c1` [Example 3, N-Isopropyl-3,N-dimethyl-5-[2S-(pyridin-4-ylamino)-propoxy]-benzamide], for which, in the test with human plasma, the “APTT: concentration of compound” value is 90 (1.5×) nM. In addition, the negative-log IC50 (pIC50) at human α-thrombin is 8.52.

As for `Cc1cc(OC[C@H](C)Nc2ccncc2)cc(C(=O)N(C(C)C)C2CCCCC2)c1` [Example 8, N-Cyclohexyl-N-isopropyl-3-methyl-5-[2S-(pyridin-4-ylamino)-propoxy]-benzamide], in the test with human plasma, the “APTT: degree of extension (ratio of clotting times in presence or absence of compound)” value is 100 (1.32×). Besides, the pIC50 on human α-thrombin was greater than 9.00.

On to `CCCN(C(=O)c1cc(Cl)cc(OC[C@H](C)Nc2ccncc2)c1)C(C)C` [Example 10, 3-Chloro-N-isopropyl-N-propyl-5-[2S-(pyridin-4-ylamino)-propoxy]-benzamide], for which the “APTT: degree of extension (ratio of clotting times in presence or absence of compound)” value in the test on human plasma was 100 (1.28×). The negative logarithm of the IC50 (pIC50) at human α-thrombin was 8.47.

Turning to `CCCCN(CCC)C(=O)c1cc(C)cc(OC[C@H](C)Nc2ccncc2)c1` [Example 7, N-Butyl-3-methyl-N-propyl-5-[2S-(pyridin-4-ylamino)-propoxy]-benzamide], in the test with human plasma, the “APTT: degree of extension (ratio of clotting times in presence or absence of compound)” value was 100 (1.31×). Further, the pIC50 against human α-thrombin was greater than 9.00.

For the compound `Cc1cc(OC[C@H](C)Nc2ccncc2)cc(C(=O)N(C(C)C)C(C)C)c1` [Example 2, N,N-Diisopropyl-3-methyl-5-[2S-(pyridin-4-ylamino)-propoxy]-benzamide], the “APTT: concentration of compound” value in the test with human plasma is 80 (1.5×) nM. In addition, on human α-thrombin, the negative logarithm of the IC50 (pIC50) was greater than 9.00.

Take `CCC(COc1cc(Cl)cc(C(=O)N(C(C)C)C(C)C)c1)Nc1ccncc1.Cl` (stereo not shown) [Example 11, 3-Chloro-N,N-diisopropyl-5-[2-(pyridin-4-ylamino)-butoxy]-benzamide hydrochloride]: the “APTT: concentration of compound” value in the test on human plasma was 650 (1.5×) nM. This compound also gave a pIC50 against human α-thrombin of 7.59.

For `CCCN(CCC)C(=O)c1cc(C)cc(OC[C@H](C)Nc2ccncc2)c1` [Example 5, 3-Methyl-N,N-dipropyl-5-[2S-(pyridin-4-ylamino)-propoxy]-benzamide], in the test with human plasma, the “APTT: concentration of compound” value is 110 (1.5×) nM. At human α-thrombin, this compound gave a negative logarithm of the IC50 (pIC50) greater than 9.00.

By pIC50 is commonly meant −log10 of the IC50, conventionally taken in molar units.
